This is an account of results in patent publication US20240209053A1 (Protagonist Therapeutics, Inc., priority 2021, published 2024).

Assay [1] has as its target human ferroportin (SLC40A1) fused in frame with GFP, stably expressed on HEK293 cells (human) (UniProt Q9NP59). Briefly: cell-based or functional assay.
Assay [2] addresses T1, ferroportin fused to green fluorescent protein (Mus musculus, UniProt Q9JHI9).
T1 sequence (Q9JHI9 1-570): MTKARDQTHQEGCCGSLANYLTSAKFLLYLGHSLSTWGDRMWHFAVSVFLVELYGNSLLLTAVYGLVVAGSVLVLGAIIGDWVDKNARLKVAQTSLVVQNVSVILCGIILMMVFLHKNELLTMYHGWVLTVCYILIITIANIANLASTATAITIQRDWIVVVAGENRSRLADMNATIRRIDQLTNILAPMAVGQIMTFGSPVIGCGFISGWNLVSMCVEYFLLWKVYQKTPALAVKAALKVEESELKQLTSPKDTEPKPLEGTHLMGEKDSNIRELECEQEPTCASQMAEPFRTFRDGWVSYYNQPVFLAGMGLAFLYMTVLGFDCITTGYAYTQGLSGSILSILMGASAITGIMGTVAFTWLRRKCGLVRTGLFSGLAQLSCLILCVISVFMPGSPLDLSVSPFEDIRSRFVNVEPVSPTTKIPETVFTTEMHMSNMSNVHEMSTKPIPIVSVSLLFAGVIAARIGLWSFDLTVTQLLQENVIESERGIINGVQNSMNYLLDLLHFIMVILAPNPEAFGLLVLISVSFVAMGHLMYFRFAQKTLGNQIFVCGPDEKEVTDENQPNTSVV
Conditions: read-out: EC50 (50% of maximal loss of fluorescence); cells incubated 24 hours; reference preparations of Hep25; cited from earlier work.

In assay [3] the target is T2, human ferroportin (SLC40A1) (Homo sapiens, UniProt Q9NP59).
T2 sequence (Q9NP59 1-571): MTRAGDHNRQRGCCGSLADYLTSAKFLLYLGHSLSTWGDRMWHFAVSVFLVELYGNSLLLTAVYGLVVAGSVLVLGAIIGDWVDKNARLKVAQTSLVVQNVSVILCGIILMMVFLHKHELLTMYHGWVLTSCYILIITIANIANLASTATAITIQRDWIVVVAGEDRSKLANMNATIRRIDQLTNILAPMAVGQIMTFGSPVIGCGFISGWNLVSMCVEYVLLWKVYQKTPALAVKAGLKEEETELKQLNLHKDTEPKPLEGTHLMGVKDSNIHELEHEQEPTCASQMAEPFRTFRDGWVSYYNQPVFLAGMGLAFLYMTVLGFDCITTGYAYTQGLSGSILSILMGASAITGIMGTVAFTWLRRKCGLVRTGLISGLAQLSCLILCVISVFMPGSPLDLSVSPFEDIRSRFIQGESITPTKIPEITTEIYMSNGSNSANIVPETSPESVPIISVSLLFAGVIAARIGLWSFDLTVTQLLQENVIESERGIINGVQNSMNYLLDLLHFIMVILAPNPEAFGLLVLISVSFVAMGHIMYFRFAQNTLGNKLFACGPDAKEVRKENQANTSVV
Description: FPN activity assay: internalization/degradation of ferroportin-GFP in stably transfected HEK293 cells (decrease in GFP fluorescence). Conditions: compound incubated at least 18 hours. Format: cell-based. An outline of the steps:
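HEK293 cells stably expressing human ferroportin C-terminally fused to GFP were exposed to peptides for at least 18 h, at most 24 h. Internalization/degradation read as loss of GFP fluorescence; EC50 derived. Retro-inverse mini-hepcidin peptides used as control standards.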

A further assay addresses T3, ferroportin (Homo sapiens, UniProt Q9NP59).
T3 sequence (Q9NP59 1-571): T2 sequence (Q9NP59 1-571)
Briefly: T47D cell-based ferroportin internalization assay in presence of 0.5% mouse serum albumin (MSA). Conditions: T47D cells. An outline of the steps: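 T47D cells exposed 1 hr to peptide series (10 points from ~5 μM) premixed 30 min at room temperature with 0.5% mouse serum albumin, then 200 nM AF647-labelled ferroportin-binding peptide for 2 hr. Flow cytometry MFI of live singlets; IC50 by 4-parameter fit.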

Numbered stars: 1 amine (or outer) side, 2 acyl side, 3 side chain; on linkers, the order of the positions; unused ones are H or OH. Bridge positions count the residues as written; N and C are the ends. Square brackets hold non-standard residues; d marks the D form. Side chains are listed from the residue outwards. Peptide text beside a SMILES is read from it. * marks the point of attachment. Dip = N[C@H](C(=O)O)C(c1ccccc1)c1ccccc1; Hag = O=C([C@H](CCC=[*:3])N[*:1])[*:2]; Palmitoyl = CCCCCCCCCCCCCCCC(=O)*; tBuAla = CC(C)(C)C[C@H](N)C(=O)O; β3hF = N[C@H](CC(=O)O)Cc1ccccc1; Isovaleryl = CC(C)CC(=O)*; Ahx = NCCCCCC(=O)O

Hepcidin (ligand) displayed a Potency EC50 in assay [1] of 34 nM.
With `CC[C@H](C)[C@@H]1NC(=O)[C@@H](NC(=O)[C@@H](NC(=O)[C@@H]2CCCN2C(=O)[C@H](Cc2ccccc2)NC(=O)[C@H](Cc2c[nH]cn2)NC(=O)[C@@H](NC(=O)[C@@H](N)CC(=O)O)[C@@H](C)O)[C@@H](C)CC)CSSC[C@@H](C(=O)N[C@@H](CCCCN)C(=O)N[C@H](C(=O)O)[C@@H](C)O)NC(=O)[C@@H]2CSSC[C@@H]3NC(=O)[C@@H]4CSSC[C@H](NC(=O)[C@H](Cc5ccccc5)NC1=O)C(=O)N[C@@H](CSSC[C@H](NC(=O)[C@H](CCCCN)NC(=O)[C@H](CO)NC(=O)[C@H](CCCNC(=N)N)NC(=O)[C@H](Cc1c[nH]cn1)NC3=O)C(=O)NCC(=O)N[C@@H](CCSC)C(=O)N2)C(=O)NCC(=O)N4` [Hepcidin, Hy-DTHFPIC(1)IFC(2)C(3)GC(2)C(4)HRSKC(3)GMC(4)C(1)KT-OH], the concentration giving a half-maximal response (EC50) – broadly, the midpoint of the concentration-response curve – in assay [2] was 5 to 15 nM.
In turn, Mini-Hepcidin 1-9 (peptide) yielded a Potency EC50 in assay [1] of 712 nM.
Compound RI-Mini Hepcidin (peptide) yielded a Potency EC50 (nM) in assay [1] above 10000 nM.
For `CCCCCCCCCCCCCCCC(=O)NCCCCCC(=O)NCCCC[C@H](NC(=O)C[C@H](Cc1ccccc1)NC(=O)[C@@H]1CCC=CCC[C@H](NC(=O)CC(C)C)C(=O)N[C@@H]([C@@H](C)O)C(=O)N[C@@H](Cc2c[nH]cn2)C(=O)N[C@@H](C(c2ccccc2)c2ccccc2)C(=O)N2CCC[C@H]2C(=O)N[C@@H](CC(C)(C)C)C(=O)N[C@@H]([C@@H](C)CC)C(=O)N1)C(=O)N[C@H](CCCCN)C(N)=O` [Compd 62] (Isovaleryl-[Hag]TH[Dip]P[tBuAla]I[Hag][β3hF]K([Ahx-Palmitoyl])[dK]-NH2; staple 1-8), the IC50 – broadly, the concentration needed to halve the response being measured – in assay [3] is 10 to 100 nM; on ferroportin it was 1 to 10 nM.
As to `CCCCCCCCCCCCCCCC(=O)NCCCCCC(=O)NCCCC[C@H](NC(=O)C[C@H](Cc1ccccc1)NC(=O)[C@@H]1CCC=CCC[C@H](NC(=O)CC(C)C)C(=O)N[C@@H]([C@@H](C)O)C(=O)N[C@@H](Cc2c[nH]cn2)C(=O)N[C@@H](C(c2ccccc2)c2ccccc2)C(=O)N2CCC[C@H]2C(=O)N[C@@H](C)C(=O)N[C@@H]([C@@H](C)CC)C(=O)N1)C(=O)N(C)[C@H](CCCCN)C(N)=O` [Compd 56], the figures for the half-inhibitory concentration (IC50) (in assay [3]; on ferroportin) were 1 to 10 nM and 10 to 100 nM, respectively.
The corresponding values for `CCCCCCCCCCCCCCCC(=O)NCCCCCC(=O)NCCCC[C@H](NC(=O)C[C@H](Cc1ccccc1)NC(=O)[C@H]1CCCC=CCC[C@@H](NC(=O)CC(C)C)C(=O)N[C@@H]([C@@H](C)O)C(=O)N[C@@H](Cc2c[nH]cn2)C(=O)N[C@@H](C(c2ccccc2)c2ccccc2)C(=O)N2CCC[C@H]2C(=O)N[C@@H](C)C(=O)N[C@@H]([C@@H](C)CC)C(=O)N1)C(=O)N[C@H](CCCCN)C(N)=O` [Compd 71] are 100 to 500 nM and 100 to 500 nM.
For `CCCCCCCCCCCCCCCC(=O)NCCCCCC(=O)NCCCC[C@H](NC(=O)C[C@H](Cc1ccccc1)NC(=O)[C@@H]1CCC=CCCC[C@@H](NC(=O)CC(C)C)C(=O)N[C@@H]([C@@H](C)O)C(=O)N[C@@H](Cc2c[nH]cn2)C(=O)N[C@@H](C(c2ccccc2)c2ccccc2)C(=O)N2CCC[C@H]2C(=O)N[C@@H](C)C(=O)N[C@@H]([C@@H](C)CC)C(=O)N1)C(=O)N[C@H](CCCCN)C(N)=O` [Compd 69] the same measures were 1 to 10 nM and above 500 nM.
As for `CCCCCCCCCCCCCCCC(=O)NCCCCCC(=O)NCCCC[C@H](NC(=O)C[C@H](Cc1ccccc1)NC(=O)[C@@H]1CCC=CCC[C@H](NC(=O)CC(C)C)C(=O)N(C)[C@@H]([C@@H](C)O)C(=O)N[C@@H](Cc2c[nH]cn2)C(=O)N[C@@H](C(c2ccccc2)c2ccccc2)C(=O)N2CCC[C@H]2C(=O)N[C@@H](C)C(=O)N[C@@H]([C@@H](C)CC)C(=O)N1)C(=O)N[C@H](CCCCN)C(N)=O` [Compd 49], the IC50 in assay [3] lay within 10 to 100 nM; on ferroportin, 100 to 500 nM.
For `CCCCCCCCCCCCCCCC(=O)NCCCCCC(=O)NCCCC[C@H](NC(=O)C[C@H](Cc1ccccc1)NC(=O)[C@@H]1CCCC=CCC[C@H](NC(=O)CC(C)C)C(=O)N[C@@H]([C@@H](C)O)C(=O)N[C@@H](Cc2c[nH]cn2)C(=O)N[C@@H](C(c2ccccc2)c2ccccc2)C(=O)N2CCC[C@H]2C(=O)N[C@@H](C)C(=O)N[C@@H]([C@@H](C)CC)C(=O)N1)C(=O)N[C@H](CCCCN)C(N)=O` [Compd 31] the same measures were 10 to 100 nM and 10 to 100 nM.
Take `CCCCCCCCCCCCCCCC(=O)NCCCCCC(=O)NCCCC[C@H](NC(=O)C[C@H](Cc1ccccc1)NC(=O)[C@H]1CCC=CCC[C@H](NC(=O)CC(C)C)C(=O)N[C@@H]([C@@H](C)O)C(=O)N[C@@H](Cc2c[nH]cn2)C(=O)N[C@@H](C(c2ccccc2)c2ccccc2)C(=O)N2CCC[C@H]2C(=O)N[C@@H](C)C(=O)N[C@@H]([C@@H](C)CC)C(=O)N1)C(=O)N[C@H](CCCCN)C(N)=O` [Compd 76]: the half-maximal inhibitory concentration (IC50) (in assay [3]; on ferroportin) was 10 to 100 nM each time.
